The values below come from article PMC6271078 (Molecules, 2014).

Converted amounts (≈) assume the structure as drawn. Structures can show the parent of a compound that is named as a salt.

For data set [1] the following is noted: cited from earlier work.
The nature of another data set: Aqueous solubility. Format: physicochemical.

The term solubility denotes the concentration that dissolves in the medium under given conditions. Read a high solubility as much dissolved substance. Take `CO[C@H]1C[C@@H]2CC[C@@H](C)[C@@](O)(O2)C(=O)C(=O)N2CCCC[C@H]2C(=O)O[C@H]([C@H](C)C[C@@H]2CC[C@@H](O)[C@H](OC)C2)CC(=O)[C@H](C)/C=C(\C)[C@@H](O)[C@@H](OC)C(=O)[C@H](C)C[C@H](C)/C=C/C=C/C=C/1C` [Rapa, Rapamycin, reference compound]: the oral bioavailability in data set [1] was 10%. In “Aqueous solubility” (ratio of compound solubility to Rapa solubility), the “Times Increased of Aqueous Solubility (Comp. vs. Rapa)” value amounted to 1. This compound yielded a solubility in the data set “Aqueous solubility” (water) of 2.6 µg/mL (≈ 2.84 µM).
As a reminder, the melting point is the temperature, or range, at which the solid turns liquid. The compound `CO[C@H]1C[C@@H]2CC[C@@H](C)[C@@](O)(O2)C(=O)C(=O)N2CCCC[C@H]2C(=O)O[C@H]([C@H](C)C[C@@H]2CC[C@@H](OC(=O)C[n+]3cccc(O)c3)[C@H](OC)C2)CC(=O)[C@H](C)/C=C(\C)[C@@H](O)[C@@H](OC)C(=O)[C@H](C)C[C@H](C)/C=C/C=C/C=C/1C` (as salt: ammonium) [Compound 5, Rapa-42-ester of 2-(3-hydroxypyridinium-1-yl)acetic Acid] showed a melting point of 146 to 148 °C.
